Legend:
Dasatinib = compound: Cc1nc(Nc2ncc(C(=O)Nc3c(C)cccc3Cl)s2)cc(N2CCN(CCO)CC2)n1 [Dasatinib]
[1] = compound: CC(=O)c1c(C)c2cnc(Nc3ccc(N4CCNCC4)cn3)nc2n(C2CCCC2)c1=O
Vorinostat = compound: O=C(CCCCCCC(=O)Nc1ccccc1)NO [Vorinostat]
Taselisib/GDC0032 = compound: Cc1nc(-c2cn3c(n2)-c2ccc(-c4cnn(C(C)(C)C(N)=O)c4)cc2OCC3)n(C(C)C)n1 [Taselisib/GDC0032]
Volasertib/BI6727 = compound: CC[C@@H]1C(=O)N(C)c2cnc(Nc3ccc(C(=O)N[C@H]4CC[C@H](N5CCN(CC6CC6)CC5)CC4)cc3OC)nc2N1C(C)C [Volasertib/BI6727]
Neratinib/HKI272 [2] = compound: T1, CCOc1cc2ncc(C#N)c(Nc3ccc(OCc4ccccn4)c(Cl)c3)c2cc1NC(=O)/C=C/CN(C)C [Neratinib/HKI272]
Doxorubicin = compound: COc1cccc2c1C(=O)c1c(O)c3c(c(O)c1C2=O)C[C@@](O)(C(=O)CO)C[C@@H]3O[C@H]1C[C@H](N)[C@H](O)[C@H](C)O1 [Doxorubicin]
[3] = compound: CC(=O)Nc1cccc(-n2c(=O)n(C3CC3)c(=O)c3c(Nc4ccc(I)cc4F)n(C)c(=O)c(C)c32)c1
INK128/MLN0128 = compound: CC(C)n1nc(-c2ccc3oc(N)nc3c2)c2c(N)ncnc21 [INK128/MLN0128]
Ceritinib/LDK378 = compound: Cc1cc(Nc2ncc(Cl)c(Nc3ccccc3S(=O)(=O)C(C)C)n2)c(OC(C)C)cc1C1CCNCC1 [Ceritinib/LDK378]
Neratinib/HKI272 [4] = compound: T1, Neratinib/HKI272; test: increase in dead-cell fraction, 72 h; higher = more death;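 further: breast cancer cell lines in 384-well plates, stained with Hoechst plus LIVE/DEAD far red dye and imaged, cells above an LDR intensity threshold counted dead, Hoechst-negative corpses included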
[5] = compound: CCc1cnn2c(NCc3ccc[n+]([O-])c3)cc(N3CCCC[C@H]3CCO)nc12; test: as above
Rucaparib = compound: CNCc1ccc(-c2[nH]c3cc(F)cc4c3c2CCNC4=O)cc1 [Rucaparib]
AZD2014 = compound: CNC(=O)c1cccc(-c2ccc3c(N4CCOC[C@@H]4C)nc(N4CCOC[C@@H]4C)nc3n2)c1 [AZD2014]
THZ531 [6] = compound: T2, CN(C)C/C=C/C(=O)Nc1ccc(C(=O)N2CCC[C@@H](Nc3ncc(Cl)c(-c4c[nH]c5ccccc45)n3)C2)cc1 [THZ531]
BSJ-01-175 = compound: CN(C)C/C=C/C(=O)Nc1ccc(O[C@@H]2CCC[C@@H](Nc3ncc(Cl)c(-c4c[nH]c5ccccc45)n3)C2)cc1 [BSJ-01-175]
BSJ-03-123 [7] = compound: T3, CC(=O)c1c(C)c2cnc(Nc3ccc(N4CCN(CCOCCOCCOCCNC(=O)COc5cccc6c5C(=O)N(C5CCC(=O)NC5=O)C6=O)CC4)cn3)nc2n(C2CCCC2)c1=O [BSJ-03-123]
YKL-5-124 = compound: C=CC(=O)Nc1ccc(C(=O)Nc2[nH]nc3c2CN(C(=O)N[C@H](CN(C)C)c2ccccc2)C3(C)C)cc1 [YKL-5-124]; test: increase in dead-cell fraction, 72 h; higher = more death;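 further: breast cancer cell lines in 384-well plates, stained with Hoechst plus LIVE/DEAD far red dye and imaged, cells above an LDR intensity threshold counted dead, Hoechst-negative corpses included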
THZ1 = compound: CN(C)C/C=C/C(=O)Nc1ccc(C(=O)Nc2cccc(Nc3ncc(Cl)c(-c4c[nH]c5ccccc45)n3)c2)cc1 [THZ1]; test: as above
THZ531 [8] = compound: T2, THZ531; test: as above
BSJ-03-123 [9] = compound: T3, BSJ-03-123; test: as above
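Wherever GR50, 72 h is given: breast cancer and non-malignant breast epithelial cell lines, Deep Dye Drop or Dye Drop imaging, nine half-log doses, GR normalized to time-zero plates and DMSO-only controls.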

Cell Line: HCC1428
- GR50, 72 h (Dasatinib): > 10 µM
- GR50, 72 h [1]: 0.073 µM
- GR50, 72 h (Vorinostat): 0.835 µM
- GR50, 72 h (Taselisib/GDC0032): 4.21 µM
- GR50, 72 h (Volasertib/BI6727): 0.0187 µM
- GR50, 72 h (Neratinib/HKI272 [2]): 1.43 µM
- GR50, 72 h (Doxorubicin): 0.00474 µM
- GR50, 72 h [3]: > 1 µM
- GR50, 72 h (INK128/MLN0128): 0.00593 µM
- GR50, 72 h (Ceritinib/LDK378): 1.24 µM
- increase in dead-cell fraction (Neratinib/HKI272 [4]; 0.0003162 µM): 0.0076
- increase in dead-cell fraction (Neratinib/HKI272 [4]; 0.001 µM): 0.0073
- increase in dead-cell fraction (Neratinib/HKI272 [4]; 0.003162 µM): 0.0021
- increase in dead-cell fraction (Neratinib/HKI272 [4]; 0.01 µM): -0.0004
- increase in dead-cell fraction (Neratinib/HKI272 [4]; 0.03162 µM): 0.0008
- increase in dead-cell fraction (Neratinib/HKI272 [4]; 0.1 µM): 0.0018
- increase in dead-cell fraction (Neratinib/HKI272 [4]; 0.3162 µM): 0.0002
- increase in dead-cell fraction (Neratinib/HKI272 [4]; 1 µM): 0.0203
- increase in dead-cell fraction (Neratinib/HKI272 [4]; 3.162 µM): 0.217
- increase in dead-cell fraction ([5]; 0.0001 µM): 0.0044
- increase in dead-cell fraction ([5]; 0.0003162 µM): 0.0006
- increase in dead-cell fraction ([5]; 0.001 µM): 0.0016
- increase in dead-cell fraction ([5]; 0.003162 µM): -0.0135
- increase in dead-cell fraction ([5]; 0.01 µM): 0.0043
- increase in dead-cell fraction ([5]; 0.03162 µM): 0.283
- increase in dead-cell fraction ([5]; 0.1 µM): 0.562
- increase in dead-cell fraction ([5]; 0.3162 µM): 0.64
- increase in dead-cell fraction ([5]; 1 µM): 0.687

Cell Line: MDAMB436
- GR50, 72 h (Rucaparib): 0.828 µM
- GR50, 72 h (Dasatinib): > 10 µM
- GR50, 72 h [1]: > 3.16 µM
- GR50, 72 h (Vorinostat): 2.68 µM
- GR50, 72 h (Taselisib/GDC0032): 4.66 µM
- GR50, 72 h (AZD2014): > 10 µM
- GR50, 72 h (Volasertib/BI6727): 0.00518 µM
- GR50, 72 h (THZ531 [6]): 0.19 µM
- GR50, 72 h (Neratinib/HKI272 [2]): 0.715 µM
- GR50, 72 h (BSJ-01-175): 0.00965 µM
- GR50, 72 h (BSJ-03-123 [7]): 7.25 µM
- GR50, 72 h (Doxorubicin): 0.00761 µM
- GR50, 72 h [3]: > 1 µM
- GR50, 72 h (INK128/MLN0128): 0.0241 µM
- GR50, 72 h (Ceritinib/LDK378): 0.499 µM
- increase in dead-cell fraction (YKL-5-124; 0.001 µM): -0.0039
- increase in dead-cell fraction (YKL-5-124; 0.003162 µM): 0.0007
- increase in dead-cell fraction (YKL-5-124; 0.01 µM): 0.019
- increase in dead-cell fraction (YKL-5-124; 0.03162 µM): 0.0153
- increase in dead-cell fraction (YKL-5-124; 0.1 µM): 0.0342
- increase in dead-cell fraction (YKL-5-124; 0.3162 µM): 0.0446
- increase in dead-cell fraction (YKL-5-124; 1 µM): 0.0289
- increase in dead-cell fraction (YKL-5-124; 3.162 µM): 0.027
- increase in dead-cell fraction (YKL-5-124; 10 µM): 0.132
- increase in dead-cell fraction (THZ1; 0.0001 µM): 0.0026
- increase in dead-cell fraction (THZ1; 0.0003162 µM): -0.0097
- increase in dead-cell fraction (THZ1; 0.001 µM): -0.0017
- increase in dead-cell fraction (THZ1; 0.003162 µM): -0.0001
- increase in dead-cell fraction (THZ1; 0.01 µM): -0.006
- increase in dead-cell fraction (THZ1; 0.03162 µM): -0.0078
- increase in dead-cell fraction (THZ1; 0.1 µM): 0.0476
- increase in dead-cell fraction (THZ1; 0.3162 µM): 0.0477
- increase in dead-cell fraction (THZ1; 1 µM): 0.0644
- increase in dead-cell fraction (THZ531 [8]; 0.0001 µM): -0.0141
- increase in dead-cell fraction (THZ531 [8]; 0.0003162 µM): -0.004
- increase in dead-cell fraction (THZ531 [8]; 0.001 µM): 0.0035
- increase in dead-cell fraction (THZ531 [8]; 0.003162 µM): -0.0059
- increase in dead-cell fraction (THZ531 [8]; 0.01 µM): -0.0057
- increase in dead-cell fraction (THZ531 [8]; 0.03162 µM): 0.0007
- increase in dead-cell fraction (THZ531 [8]; 0.1 µM): 0.0043
- increase in dead-cell fraction (THZ531 [8]; 0.3162 µM): 0.0247
- increase in dead-cell fraction (THZ531 [8]; 1 µM): 0.0705
- increase in dead-cell fraction (Neratinib/HKI272 [4]; 0.0003162 µM): 0.0013
- increase in dead-cell fraction (Neratinib/HKI272 [4]; 0.001 µM): 0.0034
- increase in dead-cell fraction (Neratinib/HKI272 [4]; 0.003162 µM): -0.0005
- increase in dead-cell fraction (Neratinib/HKI272 [4]; 0.01 µM): 0.0014
- increase in dead-cell fraction (Neratinib/HKI272 [4]; 0.03162 µM): 0.0028
- increase in dead-cell fraction (Neratinib/HKI272 [4]; 0.1 µM): 0.0066
- increase in dead-cell fraction (Neratinib/HKI272 [4]; 0.3162 µM): 0.0167
- increase in dead-cell fraction (Neratinib/HKI272 [4]; 1 µM): 0.0223
- increase in dead-cell fraction (Neratinib/HKI272 [4]; 3.162 µM): 0.0987
- increase in dead-cell fraction (BSJ-03-123 [9]; 0.001 µM): -0.0105
- increase in dead-cell fraction (BSJ-03-123 [9]; 0.003162 µM): 0.0015
- increase in dead-cell fraction (BSJ-03-123 [9]; 0.01 µM): 0.0056
- increase in dead-cell fraction (BSJ-03-123 [9]; 0.03162 µM): -0.0027
- increase in dead-cell fraction (BSJ-03-123 [9]; 0.1 µM): 0.0104
- increase in dead-cell fraction (BSJ-03-123 [9]; 0.3162 µM): 0.0058
- increase in dead-cell fraction (BSJ-03-123 [9]; 1 µM): -0.0041
- increase in dead-cell fraction (BSJ-03-123 [9]; 3.162 µM): 0.0011
- increase in dead-cell fraction (BSJ-03-123 [9]; 10 µM): 0.0742
- increase in dead-cell fraction ([5]; 0.0001 µM): -0.0027
- increase in dead-cell fraction ([5]; 0.0003162 µM): -0.0028
- increase in dead-cell fraction ([5]; 0.001 µM): 0.0008
- increase in dead-cell fraction ([5]; 0.003162 µM): 0.0055
- increase in dead-cell fraction ([5]; 0.01 µM): 0.0157
- increase in dead-cell fraction ([5]; 0.03162 µM): 0.0896
- increase in dead-cell fraction ([5]; 0.1 µM): 0.0459
- increase in dead-cell fraction ([5]; 0.3162 µM): 0.0256
- increase in dead-cell fraction ([5]; 1 µM): 0.035
